This experiment addresses Casein kinase II subunit alpha (Homo sapiens, UniProt P68400). Description: Inhibition of N-terminal GST-fusion protein tagged full length human CK2alpha1 (1 to 391 residues) expressed in baculovirus expression system co-expressing human His-tagged CK2beta using CK2tide as substrate incubated for 1 hrs in presence of ATP by off-chip mobility shift assay.

Casein kinase II subunit alpha, sequence (P68400 whole entry, the tested form may be a part): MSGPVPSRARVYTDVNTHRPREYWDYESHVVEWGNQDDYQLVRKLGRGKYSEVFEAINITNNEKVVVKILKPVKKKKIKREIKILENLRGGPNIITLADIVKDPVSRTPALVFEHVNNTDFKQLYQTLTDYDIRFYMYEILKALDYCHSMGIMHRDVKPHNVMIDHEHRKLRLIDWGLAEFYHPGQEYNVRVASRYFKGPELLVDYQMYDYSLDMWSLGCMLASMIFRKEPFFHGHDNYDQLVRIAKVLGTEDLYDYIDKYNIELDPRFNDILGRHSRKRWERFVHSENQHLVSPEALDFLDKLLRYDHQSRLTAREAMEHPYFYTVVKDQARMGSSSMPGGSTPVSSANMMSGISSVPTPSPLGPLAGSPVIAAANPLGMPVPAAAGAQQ

With `NC(=O)c1nc(-c2cccc(C(=O)O)c2)nc2c1[nH]c(=O)n2-c1ccc([N+](=O)[O-])cc1`, the IC50 turned out to be 0.38 µM. For `N#Cc1ccc(-n2c(=O)[nH]c3c(C(N)=O)nc(-c4ccc(C(=O)O)cc4)nc32)cc1` the value was over 30 µM. For the molecule `NC(=O)c1nc(/C=C/C(=O)O)nc2c1[nH]c(=O)n2-c1ccccc1`, the IC50 came out at 1 µM. Under `NC(=O)c1nc(CC(=O)O)nc2c1[nH]c(=O)n2-c1ccccc1` stands over 30 µM; under `NC(=O)c1nc(CCCC(=O)O)nc2c1[nH]c(=O)n2-c1ccccc1`, over 30 µM; under `N#Cc1ccc(-n2c(=O)[nH]c3c(C(N)=O)nc(-c4cccc(C(=O)O)c4)nc32)cc1`, 0.4 µM. `NC(=O)c1nc(CCC(=O)O)nc2c1[nH]c(=O)n2-c1ccccc1`: the IC50 is 15 µM. As to `NC(=O)c1nc(C(=O)O)nc2c1[nH]c(=O)n2-c1ccccc1`, the IC50 was over 30 µM. Under `Cc1ccc(-n2c(=O)[nH]c3c(C(N)=O)nc(-c4ccc(C(=O)O)cc4)nc32)cc1` stands 11 µM; under `Cc1ccc(-n2c(=O)[nH]c3c(C(N)=O)nc(-c4cccc(C(=O)O)c4)nc32)cc1`, 0.62 µM. For `NC(=O)c1nc(-c2ccc(C(=O)O)cc2)nc2c1[nH]c(=O)n2-c1ccccc1` the value was 14 µM; for `NC(=O)c1nc(-c2ccc(C(=O)O)cc2)nc2c1[nH]c(=O)n2-c1ccc(Cl)cc1`, over 30 µM; for `NC(=O)c1nc(-c2cccc(C(=O)O)c2)nc2c1[nH]c(=O)n2-c1ccc(Cl)cc1`, 5.4 µM. For `NC(=O)c1nc(-c2ccc(C(=O)O)cc2)nc2c1[nH]c(=O)n2-c1ccc([N+](=O)[O-])cc1` the value was over 30 µM; for `COc1cccc(-n2c(=O)[nH]c3c(C(N)=O)nc(-c4ccc(C(=O)O)cc4)nc32)c1`, 18 µM; for `COc1ccc(-n2c(=O)[nH]c3c(C(N)=O)nc(-c4cccc(C(=O)O)c4)nc32)cc1`, 2.6 µM. Take `CN(C)c1ccc(-n2c(=O)[nH]c3c(C(N)=O)nc(-c4ccc(C(=O)O)cc4)nc32)cc1`: the IC50 turned out to be 4.3 µM. For `NC(=O)c1nc(-c2cccc(C(=O)O)c2)nc2c1[nH]c(=O)n2-c1ccc(F)cc1`, the IC50 worked out at 0.18 µM. Under `NC(=O)c1nc(-c2cccc(C(=O)O)c2)nc2c1[nH]c(=O)n2-c1ccccc1` stands 1 µM. `NC(=O)c1nc(-c2ccc(C(=O)O)cc2)nc2c1[nH]c(=O)n2-c1ccc(F)cc1`: the IC50 was over 30 µM. Under `COc1cccc(-n2c(=O)[nH]c3c(C(N)=O)nc(-c4cccc(C(=O)O)c4)nc32)c1` stands 1.9 µM. Under `COc1ccc(-n2c(=O)[nH]c3c(C(N)=O)nc(-c4ccc(C(=O)O)cc4)nc32)cc1` stands 9.4 µM.
